Assay [1] has as its system HepG2 cells. In words: Lactate dehydrogenase (LDH) release into cell culture medium. The class given is cell-based, human. The settings on record: under irradiation. The procedure: Next, in order to verify the disruption effect on cell structural integrity of the ^1O2 generation by QTCy7-R under irradiation, JC-1 staining imaging was conducted to monitor the mitochondria membrane potential. […] On the other hand, cell membrane damage caused by the photooxidation of QTCy7-Ac and QTCy7-CHO could be confirmed by a visualized observation. […] Furthermore, the lactate dehydrogenase (LDH) content in cell culture medium was measured to characterize the extent of cell membrane damage.[49]
QTCy7-Ph, (e) QTCy7-Ac, (f) QTCy7-CHO, (g) TCy7 and (h) MB under 660 nm irradiation (4 mW/cm2) in PBS. (i) The relative singlet oxygen yield of different compounds in PBS.
Figure S19. (a) The cellular uptake of QTCy7-R in HepG2 cells (QTCy7-Me/QTCy7-Ph: λex = 640 […]
μm). (b) The fluorescence intensity of QTCy7-R in cell at different time. (c) The LDH release rate of cells under different treatment conditions.
Figure S20. The enlarged images of (a) QTCy7-Ac and (b) QTCy7-CHO caused cell membrane destruction at 0 min and 4 min. Yellow arrows indicate the formation of distinct bubble-like structures on cell membrane. (λex = 640 nm, λem = 650-750 nm, scale bars: 20 μm). […]

Assay [2] deals with murine mammary carcinoma cells (4T1). Nature of the assay: MTT cytotoxicity assay, 4T1. To be noted: Mus musculus, light or radiation study; 4T1, 660 nm irradiation 12 J/cm^2. The class given is cell-based. The method, then: (§1) DMEM medium was replaced with saline to prevent false positive interference. Then the cells were exposed to different following treatments: 1) cells incubated with PBS; 2) cells incubated with PBS under 660 nm irradiation (20 mW/cm2, 10 min); 3) cells incubated with QTCy7-R; 4) cells incubated with QTCy7-R under 660 nm irradiation (20 mW/cm2, 10 min). After being different treated, the cells were stained with Calcein-AM and Propidium Iodide (PI) according to the manufacture instruction. Then the confocal fluorescence imaging was carried out and recorded with a 10 × objective lens.
(§2) Cytotoxicity was tested by the reduction of methyl thiazolyl tetrazolium to formazan by succinic acid dehydrogenase in the mitochondria of living cells (MTT assay). […] The MTT solution was carefully removed and 100 μL DMSO was added to dissolve formazan, and the absorbance of each well was measured by a multifunctional microplate reader at 570 nm and 630 nm. […]
(§3) Where “OD” represent the absorbance at 570 nm and 630 nm, “ps” and “control” represent experimental groups and control groups, respectively. […]
(§4) And the fluorescence signals were monitored at different post -injection time by a NightOWL II LB983 small animal in vivo imaging system (German). […]
In general terms: Tetrazolium dyes change colour on reduction, which living cells bring about.

Assay [3] relates to human mammary carcinoma (MCF7). In words: MTT cytotoxicity assay, MCF7. The format is cell-based. To be noted: light or radiation study, MCF7, 660 nm irradiation 12 J/cm^2. The procedure: as §1, §2, §3, §4
Assay [4] deals with 4T1 subcutaneous solid tumor. Nature of the assay: Tumor suppression (PDT) in 4T1-subcutaneous tumor model. The format is in vivo, BALB/c mice. To be noted: for tumor volume increase: no irradiation. The method, then: In view of the observation that the fluorescence intensity of QTCy7-Ac in the tumor site peaked around 2–2.5 h after intravenous injection, this period was chosen as the PDT time window. […] Even so, this approach achieved partial tumor suppression; the tumor volume was 1-fold compared with the initial situation. […] After PDT treatment, the tumor kept shrinking in size (Figure S22a), which achieved a tumor suppression rate of nearly 95% (Figure S22b). Nevertheless, the tumors in PBS groups increased quickly with a 6-fold increment compared with the initial volume whether exposed to irradiation or not, which ruled out the influence of light on tumor growth. In addition, there was virtually no difference between the intratumoral and intravenous injection groups treated with QTCy7-Ac, with tumor volumes increasing by 6-fold and 7-fold, respectively, which excluded the cytotoxicity of the dye alone. […]
of major organs, the mice L) was intravenously injected with QTCy7-Ac (200 μM, 100 μL) 2 hours in advance were killed and the main organs and tumors were removed for […]
Tumor suppression experiments of 4T1-subcutaneous tumor model
To confirm the in vivo PDT efficacy of QTCy7-Ac, all the BALB/c mice were divided into 6 groups: 1) saline injection; 2) saline injection with 660 nm irradiation (100 mW/cm2, 15 min); 3) QTCy7-Ac (200 μM, 100 μL) intratumoral injection; 4) QTCy7-Ac (200 μM, 100 μL) intratumoral injection with 660 nm irradiation (100 mW/cm2, 15 min); 5) QTCy7-Ac (200 μM, 100 μL) intravenous injection; 6) QTCy7-Ac (200 μM, 100 μL) intravenous injection with 660 nm irradiation (100 mW/cm2, 15 min); When the volume of subcutaneous tumors reached about 100 mm 3, mice were injected with PBS or QTCy7-Ac, respectively. After 2 h post-injection, tumor region was irradiated with […] light. In the following half month, the tumor volume of all the mice was measured every two days by a vernier caliper. The volume of tumors was calculated by the following formula: […]
Where “V” represent the tumor volume, “a” represent greatest longitudinal diameter (length) and “b” represent the greatest transverse diameter (width).
The in vivo biocompatibility was evaluated by using measurement mice body weight and H&E slice histological analysis. After the PDT treatment, the mice were euthanized, and main organs including heart, liver, spleen, lung, kidneys and tumors were harvested for histological analysis by means of hematoxylin-eosin (H&E) staining.
Data were expressed as mean ± standard deviation. Student's t test was used to evaluate the statistical significance. P values < 0.05 were regarded statistically

Structures are written as SMILES. pIC50: −log10 of the molar value.

As to `CCOC(=O)C1=C/C(=C\C=C2/Sc3ccccc3N2CC)C(=O)C(/C=C/c2sc3ccccc3[n+]2CC)=C1` [QTCy7-Ac], the LDH release rate result in assay [1] is recorded as “about 70%”. For the same compound, the values for the pIC50 in assay [2] and in assay [3] were approximately 6.30 and approximately 6.22, respectively. For the same compound, in assay [4] (QTCy7-Ac-mediated PDT), the “H&E staining of tumor tissue” value is “Conspicuous morphological damage”. The “tumor volume compared with initial” value in assay [4] (intratumoral injection + 660 nm, 100 mW/cm^2, 15 min) worked out at 1 fold. Besides, the tumor volume increase was 6 fold in assay [4] (intratumoral injection) and 7 fold in assay [4] (intravenous injection). The tumor suppression rate in assay [4] (intravenous injection + 660 nm, 100 mW/cm^2, 15 min) was approximately 95%.

These data come from article PMC10451034, “Highly Efficient Photosensitizers with Molecular Vibrational Torsion for Cancer Photodynamic Therapy” (ACS Central Science, 2023).
